Structures can show the parent of a compound that is named as a salt.
System: clot lysis (fibrinolysis) in diluted human citrated plasma, tPA-induced
Assay: Plasma-based clot lysis assay (5%)
Format: biochemical
Details: human citrated platelet-poor plasma 5%, fibrinogen 3 μM, CaCl2 10 mM, tPA 0.2 nM, 37° C., OD at 405 nm
Procedure: B-2. Plasma-based Clot Lysis Assay (5%)
The clot-lysis test system configures the kinetics of clot formation and degradation in vitro and allows quantifying modulation of the process by selected test compounds.
The test compounds were dissolved in 1% acetic acid and further complemented with an equal volume of DMSO. The resulting stock solutions were serially diluted in 0.5% acetic acid/50% DMSO. 1 μL aliquots of these solutions were placed into 384 well microplates (Greiner, black, transparent bottom), followed by 30 μL of diluted human citrated plasma (platelet-poor, final concentration: 5%; supplemented with fibrinogen, final concentration: 3 μM; dilution buffer: 20 mM HEPES, 150 mM NaCl, 0.01% Brij (pH 7)). The reactions were started by addition of 20 μL of CaCl2 (final concentration: 10 mM), and tPA (tissue plasminogen activator, final concentration: 0.2 nM) in dilution buffer, followed by an additional volume of 20 μL dilution buffer for improved mixing. The reactions were incubated at 37° C. […] IC50 values were determined by comparing the resulting time courses with the time course of a blank control reaction.

| Structure (SMILES) | IC50 [µM] |
| --- | --- |
| COc1ccc(-c2cnn3c(C4CCNCC4)cc(=O)[nH]c23)cc1OC [Example 54, 3-(3,4-Dimethoxyphenyl)-7-(piperidin-4-yl)pyrazolo[1,5-a]pyrimidin-5(4H)-one hydrochloride] | 0.018 |
| O=C1CCN(C(=O)c2cnn3c(C4CCNCC4)cc(=O)[nH]c23)CCN1 [Example 100, 3-[(5-oxo-1,4-diazepan-1-yl)carbonyl]-7-(piperidin-4-yl)pyrazolo[1,5-a]pyrimidin-5(4H)-one hydrochloride] | 0.11 |
| O=c1cc(C2CCNCC2)n2ncc(-c3noc(C4CCCO4)n3)c2[nH]1 (racemic) [Example 389, Rac-7-(piperidin-4-yl)-3-(5-(tetrahydrofuran-2-yl)-1,2,4-oxadiazol-3-yl)pyrazolo[1,5-a]pyrimidin-5(4H)-one hydrochloride] | 0.03 |
| N#Cc1c(Br)nn2c(C3CCNCC3)cc(=O)[nH]c12 [Example 374, 2-bromo-5-oxo-7-(piperidin-4-yl)-4,5-dihydropyrazolo[1,5-a]pyrimidine-3-carbonitrile hydrochloride] | 0.034 |
| N#Cc1cccc(-c2cnn3c(C4CCNCC4)cc(=O)[nH]c23)c1 [Example 50, 3-[5-Oxo-7-(piperidin-4-yl)-4,5-dihydropyrazolo[1,5-a]pyrimidin-3-yl]benzonitrile trifluoroacetate] | 0.024 |
| O=c1cc(C2CCNCC2)n2ncc(-c3nnc(-c4ccc(C(F)(F)F)cc4)o3)c2[nH]1 [Example 166, 7-(piperidin-4-yl)-3-{5-[4-(trifluoromethyl)phenyl]-1,3,4-oxadiazol-2-yl}pyrazolo[1,5-a]pyrimidin-5(4H)-one hydrochloride] | 0.0087 |
| O=c1cc(C2CCNCC2)n2ncc(-c3nnc(-c4ccccc4F)o3)c2[nH]1 [Example 186, 3-[5-(2-fluorophenyl)-1,3,4-oxadiazol-2-yl]-7-(piperidin-4-yl)pyrazolo[1,5-a]pyrimidin-5(4H)-one hydrochloride] | 0.034 |
| CC(C)(C)CNC(=O)c1cnn2c(C3CCNCC3)cc(=O)[nH]c12 [Example 93, N-(2,2-dimethylpropyl)-5-oxo-7-(piperidin-4-yl)-4,5-dihydropyrazolo[1,5-a]pyrimidine-3-carboxamide hydrochloride] | 0.022 |
| CCOC(=O)c1c(SC)nn2c(C3CCNCC3)cc(=O)[nH]c12 [Example 455, Ethyl 2-(methylsulfanyl)-5-oxo-7-(piperidin-4-yl)-4,5-dihydropyrazolo[1,5-a]pyrimidine-3-carboxylate hydrochloride] | 0.036 |
| O=c1cc(C2CCNCC2)n2ncc(-c3noc(-c4cccc(C(F)(F)F)c4)n3)c2[nH]1 [Example 227, 7-(piperidin-4-yl)-3-{5-[3-(trifluoromethyl)phenyl]-1,2,4-oxadiazol-3-yl}pyrazolo[1,5-a]pyrimidin-5(4H)-one hydrochloride] | 0.034 |
| Cc1nn2c(C3CCNCC3)cc(=O)[nH]c2c1-c1nc(C(C)(C)C)no1 [Example 296, 3-(3-tert-butyl-1,2,4-oxadiazol-5-yl)-2-methyl-7-(piperidin-4-yl)pyrazolo[1,5-a]pyrimidin-5(4H)-one hydrochloride] | 0.023 |
| Cc1nn2c(C3CCNCC3)cc(=O)[nH]c2c1C(=O)OC(C)(C)C [Example 468, Tert-butyl 2-methyl-5-oxo-7-(piperidin-4-yl)-4,5-dihydropyrazolo[1,5-a]pyrimidine-3-carboxylate hydrochloride] | 0.039 |
| C[C@@H](c1ccccc1)N(C)C(=O)c1cnn2c(C3CCNCC3)cc(=O)[nH]c12 [Example 360, N-methyl-5-oxo-N-[(1S)-1-phenylethyl]-7-(piperidin-4-yl)-4,5-dihydropyrazolo[1,5-a]pyrimidine-3-carboxamide hydrochloride] | 0.052 |
| O=c1cc(C2CCNCC2)n2ncc(CN3CCCC3)c2[nH]1 [Example 343, 7-(piperidin-4-yl)-3-(pyrrolidin-1-ylmethyl)pyrazolo[1,5-a]pyrimidin-5(4H)-one hydrochloride] | 0.13 |
| C[C@H]1C[C@H](c2cc(=O)[nH]c3c(Cl)cnn23)CCN1 [Example 40, (−)-trans-3-Chloro-7-(2-methylpiperidin-4-yl)pyrazolo[1,5-a]pyrimidin-5(4H)-one hydrochloride] | 0.014 |
| O=c1cc(C2CCNCC2)n2ncc(-c3nc(-c4ccccc4F)no3)c2[nH]1 [Example 159, 3-[3-(2-fluorophenyl)-1,2,4-oxadiazol-5-yl]-7-(piperidin-4-yl)pyrazolo[1,5-a]pyrimidin-5(4H)-one hydrochloride] | 0.023 |
| COc1ccc(-c2noc(-c3cnn4c(C5CCNCC5)cc(=O)[nH]c34)n2)cc1Cl [Example 142, 3-[3-(3-Chloro-4-methoxyphenyl)-1,2,4-oxadiazol-5-yl]-7-(piperidin-4-yl)pyrazolo[1,5-a]pyrimidin-5(4H)-one hydrochloride] | 0.041 |

| Structure (SMILES) | IC50 [µM] |
| --- | --- |
| COCCCNC(=O)c1cnn2c(C3CCNCC3)cc(=O)[nH]c12 [Example 88, N-(3-methoxypropyl)-5-oxo-7-(piperidin-4-yl)-4,5-dihydropyrazolo[1,5-a]pyrimidine-3-carboxamide hydrochloride] | 0.049 |
| O=c1cc(C2CCNCC2)n2ncc(-c3nc(C(O)c4ccccc4)no3)c2[nH]1 (stereo not drawn) [Example 238, 3-{3-[hydroxy(phenyl)methyl]-1,2,4-oxadiazol-5-yl}-7-(piperidin-4-yl)pyrazolo[1,5-a]pyrimidin-5(4H)-one hydrochloride] | 0.028 |
| O=c1cc(C2CCNCC2)n2ncc(-c3nc(C4CCCCC4)cs3)c2[nH]1 [Example 335, 3-(4-cyclohexyl-1,3-thiazol-2-yl)-7-(piperidin-4-yl)pyrazolo[1,5-a]pyrimidin-5(4H)-one hydrochloride] | 0.009 |
| O=c1cc(C2CCNCC2)n2ncc(-c3nc(Cc4ccccc4Cl)no3)c2[nH]1 [Example 209, 3-[3-(2-chlorobenzyl)-1,2,4-oxadiazol-5-yl]-7-(piperidin-4-yl)pyrazolo[1,5-a]pyrimidin-5(4H)-one hydrochloride] | 0.036 |
| N#Cc1ccc(-c2cnn3c(C4CCNCC4)cc(=O)[nH]c23)cc1 [Example 47, 4-[5-Oxo-7-(piperidin-4-yl)-4,5-dihydropyrazolo[1,5-a]pyrimidin-3-yl]benzonitrile trifluoroacetate] | 0.013 |
| O=c1cc(C2CCNCC2)n2ncc(-c3noc(C4CC(F)(F)C4)n3)c2[nH]1 [Example 392, 3-(5-(3,3-difluorocyclobutyl)-1,2,4-oxadiazol-3-yl)-7-(piperidin-4-yl)pyrazolo[1,5-a]pyrimidin-5(4H)-one hydrochloride] | 0.027 |
| O=C(O)c1cc2[nH]c(=O)cc(C3CCNCC3)n2n1 [Example 46, 5-Oxo-7-(piperidin-4-yl)-4,5-dihydropyrazolo[1,5-a]pyrimidine-2-carboxylic acid hydrochloride] | 0.069 |
| O=c1cc(C2CCNCC2)n2ncc(-c3nc(-c4cccc(Cl)c4)cs3)c2[nH]1 [Example 163, 3-[4-(3-chlorophenyl)-1,3-thiazol-2-yl]-7-(piperidin-4-yl)pyrazolo[1,5-a]pyrimidin-5 (4H)-one hydrochloride] | 0.04 |
| O=c1cc(C2CCNCC2)n2ncc(-c3nc(C4CC4)cs3)c2[nH]1 [Example 311, 3-(4-cyclopropyl-1,3-thiazol-2-yl)-7-(piperidin-4-yl)pyrazolo[1,5-a]pyrimidin-5(4H)-one hydrochloride] | 0.018 |
| O=c1cc(C2CCNCC2)n2ncc(-c3nc(-c4ccc(C(F)(F)F)cc4C(F)(F)F)no3)c2[nH]1 [Example 152, 3-{3-[2,4-Bis(trifluoromethyl)phenyl]-1,2,4-oxadiazol-5-yl}-7-(piperidin-4-yl)pyrazolo[1,5-a]pyrimidin-5(4H)-one hydrochloride] | 0.043 |
| O=c1cc(C2CCNCC2)n2ncc(-c3nnc(Cc4ccccc4Cl)o3)c2[nH]1 [Example 276, 3-[5-(2-chlorobenzyl)-1,3,4-oxadiazol-2-yl]-7-(piperidin-4-yl)pyrazolo[1,5-a]pyrimidin-5(4H)-one hydrochloride] | 0.014 |
| O=c1cc(C2CCNCC2)n2ncc(-c3nnc(CC4CCCCC4)o3)c2[nH]1 [Example 182, 3-[5-(cyclohexylmethyl)-1,3,4-oxadiazol-2-yl]-7-(piperidin-4-yl)pyrazolo[1,5-a]pyrimidin-5 (4H)-one hydrochloride] | 0.035 |
| O=c1cc(C2CCNCC2)n2ncc(-c3nc(-c4cc(Cl)ccc4F)no3)c2[nH]1 [Example 137, 3-[3-(5-Chloro-2-fluorophenyl)-1,2,4-oxadiazol-5-yl]-7-(piperidin-4-yl)pyrazolo[1,5-a]pyrimidin-5(4H)-one hydrochloride] | 0.031 |
| Cc1nn2c(C3CCNCC3)cc(=O)[nH]c2c1C(=O)N1CCCCC1 [Example 399, 2-methyl-7-(piperidin-4-yl)-3-(piperidin-1-ylcarbonyl) pyrazolo[1,5-a] pyrimidin-5(4H)-one hydrochloride] | 0.042 |
| Cc1nn2c(C3CCNCC3)cc(=O)[nH]c2c1C(=O)N1CCN2CCCC2C1 (stereo not drawn) [Example 411, 3-(hexahydro-pyrrolo[1,2-a]pyrazin-2(1H)-ylcarbonyl)-2-methyl-7-(piperidin-4-yl) pyrazolo[1,5-a] pyrimidin-5(4H)-one hydrochloride] | 0.54 |
| O=C(c1cnn2c(C3CCNCC3)cc(=O)[nH]c12)N1CCCCC1 [Example 327, 7-(piperidin-4-yl)-3-(piperidin-1-ylcarbonyl)pyrazolo[1,5-a]pyrimidin-5(4H)-one hydrochloride] | 0.009 |

— US10118930B2, “Piperidinylpyrazolopyrimidinones and their use” (BAYER PHARMA AKTIENGESELLSCHAFT, priority 2015, dated 2018)
